In patent US20080146614A1, “Therapeutic Agents” (priority 2004, published 2008):

Target: T1, CB1 receptor (Homo sapiens, UniProt P21554)
T1 construct: expressed in transfected cells
Assay: [35S]-GTPγS binding assay on membranes from cells stably transfected with the CB1 gene, inhibition of agonist CP55940 (EC80)
Format: biochemical
Settings: half maximal inhibition of GTPγS binding, EC80 concentration of CP55940
Experimental: 10 μg of membranes prepared from cells stably transfected with the CB1 gene were suspended in 200 μl of 100 mM NaCl, 5 mM MgCl2, 1 mM EDTA, 50 mM HEPES (pH 7.4), 1 mM DTT, 0.1% BSA and 100 μM GDP. To this was added an EC80 concentration of agonist (CP55940), the required concentration of test compound and 0.1 μCi [^35S]-GTPγS. The reaction was allowed to proceed at 30° C. for 45 min. Samples were then transferred on to GF/B filters using a cell harvester and washed with wash buffer (50 mM Tris (pH 7.4), 5 mM MgCl2, 50 mM NaCl). Filters were then covered with scintilant and counted for the amount of [^35S]-GTPγS retained by the filter.
Activity is measured in the absence of all ligands (minimum activity) or in the presence of an EC80 concentration of CP55940 (maximum activity). These activities are set as 0% and 100% activity respectively. At various concentrations of novel ligand, activity is calculated as a percentage of the maximum activity and plotted. The data are fitted using the equation y=A+((B−A)/1+((C/x)UD)) and the IC50 value determined as the concentration required to give half maximal inhibition of GTPγS binding under the conditions used.

T1 sequence (P21554 whole entry): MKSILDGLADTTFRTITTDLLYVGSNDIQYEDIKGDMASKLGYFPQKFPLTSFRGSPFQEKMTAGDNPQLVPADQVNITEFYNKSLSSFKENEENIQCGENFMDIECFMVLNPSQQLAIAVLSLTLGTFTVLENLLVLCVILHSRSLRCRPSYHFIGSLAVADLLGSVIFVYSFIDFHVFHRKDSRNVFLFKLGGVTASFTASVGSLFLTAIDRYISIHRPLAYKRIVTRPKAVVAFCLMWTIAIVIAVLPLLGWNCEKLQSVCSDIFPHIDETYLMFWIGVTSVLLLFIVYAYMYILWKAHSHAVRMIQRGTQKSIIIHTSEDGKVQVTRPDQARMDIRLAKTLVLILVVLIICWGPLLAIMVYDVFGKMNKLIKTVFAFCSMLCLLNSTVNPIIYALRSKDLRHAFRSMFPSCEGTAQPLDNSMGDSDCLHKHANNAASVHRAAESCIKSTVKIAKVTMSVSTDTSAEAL

IC50: 3.3 nM
Structure (SMILES): CCCS(=O)(=O)Oc1ccc(-c2c(CO)c(C(=O)NN3CCCCC3)nn2-c2ccc(Cl)cc2Cl)cc1 [Example 1, Propane-1-sulfonic acid 4-[2-(2,4-dichlorophenyl)-4-hydroxymethyl-5-(piperidin-1-ylcarbamoyl)-2H-pyrazol-3-yl]-phenyl ester]
